According to patent US11306122B2, “Compositions and methods of inhibiting the binding of plasma IgG autoantibodies to serotonin 2A receptor” (United States Government As Represented By The Department …, priority 2019, dated 2022):
Numbered stars: 1 amine (or outer) side, 2 acyl side, 3 side chain; on linkers, the order of the positions; unused ones are H or OH. Bridge positions count the residues as written; N and C are the ends. Square brackets hold non-standard residues; d marks the D form. Peptide text beside a SMILES is read from it. X1 = CC(=O)NC(C(=O)OC(C(C)C)C(N[*:1])C(=O)[*:2])C(O)C(C)C; PhLac = O=C(O)[CH](O)Cc1ccccc1; NMeT = CN[CH](C(=O)O)[CH](C)O; NMeA = CN[CH](C)C(=O)O; NMeDha = C=C(NC)C(=O)O

Key:
[1] = tested on: mouse N2A neuroblastoma cells; assay: Acute N2A neurite retraction induced by TBI patient 5-HT2A receptor autoantibodies; type: cell-based; settings: for effect on TBI autoantibody-induced acute neurite retraction: M100907 250-500 nM, Y27632 10 μM, other concentrations as in Table 17; for % of autoantibody Neurite Retraction from TBI patients: 60 nM IgG of representative TBI patient; for effect on neurite retraction in TBI patient autoantibodies, Example 4: 10 μM Y27632, 1 μM YM25489, 1 μM U73122, 50 μM 2-APB; for % of 5-HT2A receptor Autoantibody Neurite Retraction: 60 nM TBI autoantibodies (alone 100%)
Description: Acute neurite retraction. Mouse N2A neuroblastoma cells were maintained in Dulbecco's minimal essential medium with 10% fetal calf serum. […] Neurite retraction represents average neurite length-shortening after five minutes exposure to TBI (5-HT2A receptor) autoantibodies (60-100 nM) in the presence or absence of various G-protein coupled receptor (GPCR) or signaling pathway antagonists.
A 60 nanomolar concentration of the IgG autoantibodies (e.g., 5-HT2A receptor autoantibodies) from a representative TBI patient was incubated with N2A cells in the presence or absence of the indicated concentration of the selective GPCR antagonist.
A 60 nanomolar concentration of 5-HT2A receptor autoantibodies from TBI patients was incubated with N2A cells in the presence or absence of the indicated concentration of Gq11/PLC-gamma/IP3R antagonist or RhoA/Rho kinase pathway inhibitor.
Neurovascular 5-hydroxytryptamine (serotonin) 2A receptor (5-HT2AR) autoantibodies were previously reported to function as long-acting agonists in diabetic angiopathy and subsets of major depression, Parkinson's disease or dementia. The 5-HT2A receptor is highly expressed in specific brain regions underlying cognition, perception and mood regulation. Long-lasting 5-HT2A receptor activation by circulating autoantibodies might contribute to pathophysiology via central and peripheral mechanisms. Since the risk or incidence of Parkinson's disease, depression and dementia increase following traumatic brain injury (TBI), circulating neurotoxic autoantibodies (e.g., 5HT2AR) were tested, characterized and compared with autoantibodies from TBI patients vs. diabetic subsets with or without neurodegenerative disorders. Plasma IgG autoantibodies (e.g., 5-HT2AR autoantibodies) were obtained by protein-A affinity chromatography in ten male TBI patients mean age 64 years old.

[2] = tested on: N2A mouse neuroblastoma cells; assay: Acute N2A neurite retraction induced by schizophrenia plasma autoantibodies; type: cell-based; settings: for % AutoAB-induced neurite retraction: 20 nM Pt 1 schizophrenia AutoAB; for % of AutoAB-induced neurite retraction: 40 nM SCZ IgG (N = 2), alone 100 ± 0%; for effect on schizophrenia autoantibody-induced neurite retraction: M100907 two-hundred nanomolar, Y27632 ten micromolar, Y254890 one micromolar
Description: (§1) Methods: Plasma from five older adults with chronic schizophrenia and eight age-matched patients having another neuropsychiatric, immune or metabolic disorder was subjected to Protein-A affinity chromatography to obtain IgG autoantibodies. Mean neurite retraction (5 minutes) or cell survival (24 hours) was determined in mouse N2A neuroblastoma cells incubated with autoantibodies in the presence or absence of specific antagonists of the Gq/11/PLC/IP3R signaling pathway, Gi-coupled, beta-arrestin2-directed pathways, or LY379268.
Acute neurite retraction assay. Percent of basal neurite length in N2A cells expressing one or more proximally-located dendrite-like process was determined after interval exposure to test substances (Zimering M B, J Endocrinol Diabetes. 2018; 5(2): 10).
A twenty nanomolar concentration of protein-A eluate fraction of plasma from Pt 1 with schizophrenia was incubated with N2A cells in the presence or absence of the indicated concentration of each Gq/11, GPCR antagonist. Results are the mean+/−SD of two experiments.
A forty nanomolar concentration of plasma autoantibodies (AutoAB) from Pt 1 or Pt, schizophrenia, was incubated in the presence or absence of the indicated concentration of RhoA/Rho kinase (ROCK) inhibitor, or individual antagonists of the Gq11/PLC/IP3R signaling pathway. […]

[3] = tested on: N2A mouse neuroblastoma cells; assay: N2A cell survival (MTT) promoted by schizophrenia/psychosis plasma autoantibodies; type: cell-based; settings: LY379268 5 μM, pertussis toxin 100 ng/mL; for effect alone on N2A cell survival: without autoantibodies; for effect on autoantibody-induced N2A pro-survival/proliferation (words): M100907 500 nM, LY294002 20 μM, 24 hours
Description: as §1
N2A cell survival. MTT assay was performed 24 hours after incubation with test substances (Zimering M B, J Endocrinol Diabetes. 2018; 5(2): 10).
Serotonin 2A receptor activation leads to f3-arrestin-2-mediated desensitization and receptor internalization. However, β-arrestin-2 can also couple with diverse signaling pathways leading to enhanced cell proliferation and/or survival promotion.

N2A cells = assay: N2A cell loss (MTT) induced by TBI patient autoantibodies; type: cell-based, mouse; settings: M100907 250 nM (eight of eight patients); prazosin 850 nM (n=5); one-fiftieth dilution; 24 hours
Description: Cell survival was determined with MTT assay.
Mouse neuroblastoma cell loss. N2A cell loss was quantified using an MTT (3-(4,5-dimethylthiazol-2-yl)-2,5-diphenyltetrazolium bromide) tetrazolium reduction assay after overnight incubation with autoantibodies from TBI patients (Zimering M B, Endocrinol Diabetes Metab J. 2019 August; 3(4) pii: 118. Epub 2019 Aug. 14).

[4] = tested on: mouse N2A neuroblastoma cells; assay: Acute N2A neurite retraction induced by diabetic pathologies' IgG autoantibodies; type: cell-based; settings: for Mean acute N2a neurite retraction (%): Pt 1 IgG one-fortieth dilution + 20 μg/mL peptide, IgG alone 100 + 0%; for effect on Patient 1 IgG autoantibody-induced N2A neurite retraction: short peptides at 20 μg/mL, pre-incubated 5 minutes, Q..N-18 dose series
Description: Methods: Plasma or serum from fifty-six older adults with (n=49) or without (n=7) type 2 diabetes was subjected to Protein-A affinity chromatography to obtain IgG autoantibodies. Binding to a synthetic 18-meric linear synthetic peptide (SEQ ID NO: 1) corresponding to the second extracellular loop of the 5-hydroxytryptamine 2A receptor was tested in a 1/40th or higher dilution of the protein-A eluates. Mean acute neurite retraction (5 minutes) or cell survival (16-24 hours) was determined in mouse N2A neuroblastoma cells incubated with IgG autoantibodies in the presence or absence of three short, linear overlapping peptides comprising the second extracellular loop of the human 5-hydroxytryptamine 2A receptor (SEQ ID NOs: 2, 3 and 4).
N2A Acute Neurite Retraction assay. Acute neurite retraction assay was performed as described in Hu G, et al. Diabetes Care 2007; 30(4): 842-847.
Epitope mapping of region within 5-HT2A receptor, linear synthetic 5-HT2A receptor peptide targeted by autoantibodies. Next an epitope analysis was performed to determine the subregion within the 5-HT2A receptor second extracellular domain that binds to the type 2 diabetes pathologies' autoantibodies. Three overlapping short peptides were synthesized (SEQ ID NOs: 2, 3, and 4). N2a cells expressing neurites were pre-incubated with each of the peptides separately (for 5 minutes) prior to the addition of Patient 1, […] hypertension IgG autoantibodies to determine which of the three peptides could compete for binding to the test diabetic pathologies' autoantibodies causing inhibition of IgG autoantibody-induced neurite retraction.
The indicated concentration of the Q . . . […] Acute N2A neurite retraction was assessed after 5 minutes.

[5] = Patient 1 DM refractory hypertension autoantibody, one sixtieth dilution, 5 minutes, 0 μg/mL peptide: 90 + 5%

## COc1ccccc1Oc1c(NS(=O)(=O)c2ccc(C(C)(C)C)cc2)nc(-c2ncccn2)nc1OCCO [Bosentan]
[1]
  effect on TBI autoantibody-induced acute neurite retraction: little or no significant protective effect
[1]; antagonist 10 μM
  % of autoantibody Neurite Retraction from TBI patients: 80%
[2]; antagonist 10 μM
  % AutoAB-induced neurite retraction: 94 ± 7%

## O=C(c1ccc(F)cc1)C1CCN(CCn2c(=O)[nH]c3ccccc3c2=O)CC1 [Ketanserin]
[1]
  effect on TBI autoantibody-induced acute neurite retraction: substantially blocked
[1]; antagonist 1 μM
  % of autoantibody Neurite Retraction from TBI patients: 26%
[1]; antagonist 2 μM
  % of autoantibody Neurite Retraction from TBI patients: 18%
[2]; antagonist 500 nM
  % AutoAB-induced neurite retraction: 43 ± 11%

## N[C@@]1(C(=O)O)CO[C@H]2[C@H](C(=O)O)[C@H]21 [LY379268]
[2]; 10 μM LY379268, n=12, IgG alone 52±7%
  mean level of neurite retraction in the presence of LY379268: 74±10%
[2]; 5-101.1M concentrations (so in the source), without autoantibodies
  effect alone on neurite retraction: no effect
[2]; 7.5-10 μM LY379268, mean [IgG] 17 ± 6 nM, N = 12 patients, five minutes, Pt IgG alone 52 ± 7%
  Mean N2A neurite retraction, Pt IgG + LY379268: 74 ±10%^∧
[2]; 10 micromolar LY379268, Pt 1 SCZ IgG, without LY379268: one microgram per milliliter (~7 nM)
  IgG autoantibody concentration giving 50% inhibition of N2A neurite outgrowth in the presence of LY379268: ~0.5 microgram per milliliter
[2]; 10 micromolar LY379268, Pt 1 SCZ IgG, without LY379268 ~7 nM
  IgG autoantibody concentration giving 50% inhibition of N2A neurite outgrowth in the presence of LY379268, molar: 3.5 nM
[3]
  effect alone on N2A cell survival: no effect
  effect on autoantibody-induced N2A pro-survival/proliferation (words): significantly blocked

## CCCCc1nc(Cl)c(CO)n1Cc1ccc(-c2ccccc2-c2nn[nH]n2)cc1 [Losartan]
[2]; antagonist 10 μM
  % AutoAB-induced neurite retraction: 72 ± 8%

## NCCOB(c1ccccc1)c1ccccc1 [Peptide 2-APB]
[1]
  effect on neurite retraction in TBI patient autoantibodies, Example 4: significantly blocked
[1]; inhibitor 25 μM
  % of 5-HT2A receptor Autoantibody Neurite Retraction: 0%
[2]; inhibitor 50 μM
  % of AutoAB-induced neurite retraction: 17 ± 1.9%

## COc1ccc2c(c1)CC[C@@H]1[C@@H]2CC[C@]2(C)[C@@H](NCCCCCCN3C(=O)C=CC3=O)CC[C@@H]12 [Peptide U73122]
[1]
  effect on neurite retraction in TBI patient autoantibodies, Example 4: significantly blocked
[1]; inhibitor 1 μM
  % of 5-HT2A receptor Autoantibody Neurite Retraction: 10%
[2]; inhibitor 1 μM
  % of AutoAB-induced neurite retraction: 28 ± 15%

## C[C@@H](N)[C@H]1CC[C@H](C(=O)Nc2ccncc2)CC1 [Peptide Y27632]
[2]
  effect on schizophrenia autoantibody-induced neurite retraction: completely prevented
[2]; inhibitor 10 μM
  % of AutoAB-induced neurite retraction: 0 ± 0%

## COc1cc2nc(N3CCN(C(=O)c4ccco4)CC3)nc(N)c2cc1OC [Prazosin]
N2A cells
  effect on accelerated N2A cell death/loss by TBI autoantibodies: much less protective effect
[2]; antagonist 1 μM
  % AutoAB-induced neurite retraction: 72 ± 10%

## Cc1cc(NC(=O)Nc2ccc3c(ccn3C)c2)sn1 [SB204741]
[1]
  effect on TBI autoantibody-induced acute neurite retraction: no significant protective effect
[1]; antagonist 1 μM
  % of autoantibody Neurite Retraction from TBI patients: 70%
[2]; antagonist 1 μM
  % AutoAB-induced neurite retraction: 100 ± 0%

## C=C1C(=O)NC(C)C(=O)N(C)C(C)C(=O)NC(C(OC(=O)C(NC(C)=O)C(O)C(C)C)C(C)C)C(=O)N(C)C(C(C)OC)C(=O)OC(C)C(NC(C)=O)C(=O)OC(Cc2ccccc2)C(=O)N1C (centres unmarked) [YM254890] (Ac-T[PhLac][NMeDha]A[NMeA][X1][NMeT](Me); ester 1-C; configuration not given here)
[1]
  effect on neurite retraction in TBI patient autoantibodies, Example 4: significantly blocked
[1]; inhibitor 1 μM
  % of 5-HT2A receptor Autoantibody Neurite Retraction: 11%
[2]
  effect on schizophrenia autoantibody-induced neurite retraction: completely prevented
[2]; inhibitor 1 μM
  % of AutoAB-induced neurite retraction: 0 ± 0%

## Pertussis toxin
[3]
  effect alone on N2A cell survival: no effect
  effect on autoantibody-induced N2A pro-survival/proliferation (words): significantly blocked
[3]; listed as pertussis toxin
  effect on autoantibody-induced N2A pro-survival/proliferation (words): blocked

## QDDSKVF [Peptide 3, short overlapping peptide of 5-HT2A receptor second extracellular loop]
[4]; 5 minutes
  Mean acute N2a neurite retraction (%): 87 + 19%
[4]
  effect on Patient 1 IgG autoantibody-induced N2A neurite retraction: no significant effect

## QDDSKVFKEGSCLLADDN [Peptide 1]
[4]; [5]
  acute N2A neurite withdrawal, autoantibody + Q...N-18 at 3 μg/mL: 25 + 7%
  acute N2A neurite withdrawal, autoantibody + Q...N-18 at 5 μg/mL: 0 + 0%
[4]
  effect on Patient 1 IgG autoantibody-induced N2A neurite retraction: dose-dependently inhibited
[4]; sixty nanomolar protein-A eluate of Patient 1 plasma
  Half-maximal inhibition of autoantibody-induced acute neurite retraction: 2 µg/mL
[4]; sixty nanomolar protein-A eluate of Patient 1 plasma, read-out: Half-maximal inhibition of autoantibody-induced acute neurite retraction, corresponding molar concentration
  IC50: ~1 µM

## VFKEGSC [Peptide 4, short overlapping peptide of 5-HT2A receptor second extracellular loop]
[4]; 5 minutes
  Mean acute N2a neurite retraction (%): 88 + 13%
[4]
  effect on Patient 1 IgG autoantibody-induced N2A neurite retraction: no significant effect
